Assay [1] has as its target T1, Mitogen-activated protein kinase kinase kinase 19 (Homo sapiens) (UniProt Q56UN5).
T1 sequence (whole entry): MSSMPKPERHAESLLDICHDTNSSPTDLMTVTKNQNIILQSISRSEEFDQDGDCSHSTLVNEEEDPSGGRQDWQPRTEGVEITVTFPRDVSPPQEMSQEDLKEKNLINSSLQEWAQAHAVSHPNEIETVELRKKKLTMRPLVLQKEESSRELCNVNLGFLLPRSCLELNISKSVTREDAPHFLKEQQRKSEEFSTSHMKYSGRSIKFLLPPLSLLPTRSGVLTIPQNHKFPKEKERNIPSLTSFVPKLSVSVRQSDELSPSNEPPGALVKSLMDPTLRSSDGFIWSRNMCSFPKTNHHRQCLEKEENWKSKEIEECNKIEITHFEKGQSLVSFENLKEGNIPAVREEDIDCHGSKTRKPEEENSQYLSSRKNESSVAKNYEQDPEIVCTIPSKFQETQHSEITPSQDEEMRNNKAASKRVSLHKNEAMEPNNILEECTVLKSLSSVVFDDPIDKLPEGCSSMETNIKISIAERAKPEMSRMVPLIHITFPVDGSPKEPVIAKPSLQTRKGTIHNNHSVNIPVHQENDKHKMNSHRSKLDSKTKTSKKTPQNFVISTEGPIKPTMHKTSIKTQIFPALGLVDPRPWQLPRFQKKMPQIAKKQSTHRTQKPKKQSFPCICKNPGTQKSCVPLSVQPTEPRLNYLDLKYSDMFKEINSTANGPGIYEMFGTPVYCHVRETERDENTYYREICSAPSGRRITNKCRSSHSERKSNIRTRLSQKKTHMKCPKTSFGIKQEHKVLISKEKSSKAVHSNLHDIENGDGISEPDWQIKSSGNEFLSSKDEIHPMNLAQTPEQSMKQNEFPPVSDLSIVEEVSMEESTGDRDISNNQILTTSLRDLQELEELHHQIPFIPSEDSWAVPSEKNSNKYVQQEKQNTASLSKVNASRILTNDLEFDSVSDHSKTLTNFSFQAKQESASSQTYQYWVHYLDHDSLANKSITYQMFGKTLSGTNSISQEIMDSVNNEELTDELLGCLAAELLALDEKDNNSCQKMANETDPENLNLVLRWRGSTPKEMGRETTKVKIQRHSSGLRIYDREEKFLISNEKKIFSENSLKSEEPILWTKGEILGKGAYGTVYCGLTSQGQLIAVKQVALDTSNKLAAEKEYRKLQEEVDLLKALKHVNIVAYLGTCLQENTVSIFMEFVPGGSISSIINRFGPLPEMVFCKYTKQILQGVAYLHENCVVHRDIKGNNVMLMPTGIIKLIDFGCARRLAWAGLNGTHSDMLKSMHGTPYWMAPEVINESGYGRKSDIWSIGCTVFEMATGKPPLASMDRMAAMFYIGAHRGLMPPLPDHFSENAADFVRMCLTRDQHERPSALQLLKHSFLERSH
Kind of assay: Selectivity interaction (KinomeScan (DiscoverX)) EUB0000138c MAP3K19. As to conditions: at 100 nM.

Assay [2] addresses Hepatocyte growth factor receptor (Homo sapiens) (UniProt P08581). As to conditions: at 1 µM.
Assay [3] addresses Death-associated protein kinase 1 (Homo sapiens) (UniProt P53355). Briefly: Selectivity interaction (KinomeScan (DiscoverX)) EUB0000698a DAPK1. As to conditions: at 10 µM.
The target in assay [4] is Serine/threonine-protein kinase 3 (Homo sapiens) (UniProt Q13188). Briefly: Selectivity interaction (KinomeScan (DiscoverX)) EUB0000698a STK3. The note with it: at 10 µM.
Serine/threonine-protein kinase 3 (Homo sapiens), sequence (Q13188 whole entry): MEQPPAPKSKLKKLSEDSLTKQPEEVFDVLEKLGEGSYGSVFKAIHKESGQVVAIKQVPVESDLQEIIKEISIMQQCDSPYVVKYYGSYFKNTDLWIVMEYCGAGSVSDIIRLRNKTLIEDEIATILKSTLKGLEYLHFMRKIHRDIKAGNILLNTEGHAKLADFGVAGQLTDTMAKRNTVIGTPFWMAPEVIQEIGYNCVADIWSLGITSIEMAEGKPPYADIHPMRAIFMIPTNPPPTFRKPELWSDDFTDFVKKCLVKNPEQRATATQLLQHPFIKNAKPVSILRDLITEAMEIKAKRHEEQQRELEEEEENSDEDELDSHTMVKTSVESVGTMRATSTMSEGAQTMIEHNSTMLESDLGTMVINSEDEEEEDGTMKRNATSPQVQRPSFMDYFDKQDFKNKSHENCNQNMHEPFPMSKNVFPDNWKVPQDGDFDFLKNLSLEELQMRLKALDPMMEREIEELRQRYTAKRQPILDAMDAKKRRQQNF
Assay [5] addresses T2, Dual specificity mitogen-activated protein kinase kinase 5 (Homo sapiens, UniProt Q13163).
T2 sequence (Q13163 whole entry): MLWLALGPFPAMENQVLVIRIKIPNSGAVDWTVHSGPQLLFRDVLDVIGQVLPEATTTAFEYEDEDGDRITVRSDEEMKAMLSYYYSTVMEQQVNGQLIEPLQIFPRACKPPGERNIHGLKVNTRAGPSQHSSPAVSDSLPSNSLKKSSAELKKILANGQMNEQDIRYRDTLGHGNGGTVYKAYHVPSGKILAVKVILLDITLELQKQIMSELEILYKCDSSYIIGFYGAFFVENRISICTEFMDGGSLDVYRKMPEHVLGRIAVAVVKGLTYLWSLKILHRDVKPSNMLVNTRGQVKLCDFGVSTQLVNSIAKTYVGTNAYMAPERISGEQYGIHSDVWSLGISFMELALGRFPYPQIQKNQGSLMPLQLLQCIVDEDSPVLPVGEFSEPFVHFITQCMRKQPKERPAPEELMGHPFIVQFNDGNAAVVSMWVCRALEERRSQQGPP
Kind of assay: Selectivity interaction (NanoBRET assay (HEK293T cells)) EUB0000305b MAP2K5. In general terms: Bioluminescence resonance energy transfer reports proximity on the nanometre scale.

Assay [6] concerns the target T1, Mitogen-activated protein kinase kinase kinase 19 (Homo sapiens). Kind of assay: Selectivity interaction (KinomeScan (DiscoverX)) EUB0000305b MAP3K19. As to conditions: CellTiter-Glo assay (Promega, proliferation in ACHN cells): IC50 = […] nM, https://www.sgc-ffm.uni-frankfurt.de/#!specificprobeove, at 100 nM.
The target in assay [7] is Serine/threonine-protein kinase 17A (Homo sapiens, UniProt Q9UEE5). Briefly: Selectivity interaction (NanoBRET assay (HEK293T cells)) EUB0000305b STK17A.
Serine/threonine-protein kinase 17A, sequence (Q9UEE5 whole entry): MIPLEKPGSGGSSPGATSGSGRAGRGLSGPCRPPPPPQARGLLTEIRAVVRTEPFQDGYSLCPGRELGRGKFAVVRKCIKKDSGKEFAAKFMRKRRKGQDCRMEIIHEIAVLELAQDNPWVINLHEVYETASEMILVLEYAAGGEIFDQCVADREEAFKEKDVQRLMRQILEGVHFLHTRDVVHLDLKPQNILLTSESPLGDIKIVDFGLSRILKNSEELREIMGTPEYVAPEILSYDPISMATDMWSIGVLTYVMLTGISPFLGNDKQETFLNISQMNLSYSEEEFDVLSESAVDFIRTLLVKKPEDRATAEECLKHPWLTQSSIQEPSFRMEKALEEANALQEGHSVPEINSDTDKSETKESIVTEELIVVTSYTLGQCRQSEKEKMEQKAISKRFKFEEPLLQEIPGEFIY
In assay [8] the target is Serine/threonine-protein kinase 16 (Homo sapiens, UniProt O75716). Briefly: Selectivity interaction (KinomeScan (DiscoverX)) EUB0000702a STK16. The note with it: at 1 µM.
The target of assay [9] is Mitogen-activated protein kinase kinase kinase 3 (Homo sapiens, UniProt Q99759). Briefly: Selectivity interaction (Enzymatic assay) EUB0000178b MAP3K3.
Mitogen-activated protein kinase kinase kinase 3, sequence (Q99759 whole entry, canonical isoform): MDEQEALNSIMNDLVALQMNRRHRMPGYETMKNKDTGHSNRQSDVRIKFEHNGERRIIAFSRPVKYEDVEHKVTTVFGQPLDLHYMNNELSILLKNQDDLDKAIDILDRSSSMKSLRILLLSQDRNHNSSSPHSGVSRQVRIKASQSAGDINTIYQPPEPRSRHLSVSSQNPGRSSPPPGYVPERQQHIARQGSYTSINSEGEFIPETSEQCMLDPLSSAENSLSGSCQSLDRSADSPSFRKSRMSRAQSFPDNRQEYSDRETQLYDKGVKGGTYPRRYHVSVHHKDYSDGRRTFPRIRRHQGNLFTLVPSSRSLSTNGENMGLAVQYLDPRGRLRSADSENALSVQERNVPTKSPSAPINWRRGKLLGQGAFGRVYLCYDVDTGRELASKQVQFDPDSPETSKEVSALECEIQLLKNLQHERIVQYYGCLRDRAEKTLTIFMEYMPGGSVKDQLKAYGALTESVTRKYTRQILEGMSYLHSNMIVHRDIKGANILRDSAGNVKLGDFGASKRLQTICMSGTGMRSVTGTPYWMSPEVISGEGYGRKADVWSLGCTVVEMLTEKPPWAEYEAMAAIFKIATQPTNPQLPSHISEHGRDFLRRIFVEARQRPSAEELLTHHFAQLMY
Assay [10] has as its target T3, Phosphatidylinositol 4,5-bisphosphate 3-kinase catalytic subunit gamma isoform (Homo sapiens, UniProt P48736). Briefly: Selectivity interaction (KinomeScan (DiscoverX, competition-binding assay)) EUB0000178b PIK3CG.
In assay [11] the target is T3, Phosphatidylinositol 4,5-bisphosphate 3-kinase catalytic subunit gamma isoform. Briefly: Selectivity interaction (KinomeScan (DiscoverX)) EUB0000178b PIK3CG. As to conditions: at 1 µM.
For assay [12], the target named is Glycogen synthase kinase-3 beta (Homo sapiens, UniProt P49841). Kind of assay: Selectivity interaction (Kinase panel (University of Dundee)) EUB0000169b GSK3B. The note with it: at 10 µM.
Assay [13] concerns the target Calcium/calmodulin-dependent protein kinase kinase 1 (Homo sapiens) (UniProt Q8N5S9). Kind of assay: Selectivity interaction (KinomeScan (DiscoverX)) EUB0000169b CAMKK1. The note with it: at 1 µM.
Assay [14] has as its target RAC-alpha serine/threonine-protein kinase (Homo sapiens, UniProt P31749). Kind of assay: Selectivity interaction (Kinase panel (University of Dundee)) EUB0000169b AKT1. The note with it: at 10 µM.
For assay [15], the target named is Protein kinase C alpha type (Homo sapiens) (UniProt P17252). Kind of assay: Selectivity interaction (Kinase panel (University of Dundee)) EUB0000169b PRKCA. The note with it: at 10 µM.

Each structure is given as a SMILES string.

Hepatocyte growth factor receptor (Homo sapiens), sequence (P08581 whole entry): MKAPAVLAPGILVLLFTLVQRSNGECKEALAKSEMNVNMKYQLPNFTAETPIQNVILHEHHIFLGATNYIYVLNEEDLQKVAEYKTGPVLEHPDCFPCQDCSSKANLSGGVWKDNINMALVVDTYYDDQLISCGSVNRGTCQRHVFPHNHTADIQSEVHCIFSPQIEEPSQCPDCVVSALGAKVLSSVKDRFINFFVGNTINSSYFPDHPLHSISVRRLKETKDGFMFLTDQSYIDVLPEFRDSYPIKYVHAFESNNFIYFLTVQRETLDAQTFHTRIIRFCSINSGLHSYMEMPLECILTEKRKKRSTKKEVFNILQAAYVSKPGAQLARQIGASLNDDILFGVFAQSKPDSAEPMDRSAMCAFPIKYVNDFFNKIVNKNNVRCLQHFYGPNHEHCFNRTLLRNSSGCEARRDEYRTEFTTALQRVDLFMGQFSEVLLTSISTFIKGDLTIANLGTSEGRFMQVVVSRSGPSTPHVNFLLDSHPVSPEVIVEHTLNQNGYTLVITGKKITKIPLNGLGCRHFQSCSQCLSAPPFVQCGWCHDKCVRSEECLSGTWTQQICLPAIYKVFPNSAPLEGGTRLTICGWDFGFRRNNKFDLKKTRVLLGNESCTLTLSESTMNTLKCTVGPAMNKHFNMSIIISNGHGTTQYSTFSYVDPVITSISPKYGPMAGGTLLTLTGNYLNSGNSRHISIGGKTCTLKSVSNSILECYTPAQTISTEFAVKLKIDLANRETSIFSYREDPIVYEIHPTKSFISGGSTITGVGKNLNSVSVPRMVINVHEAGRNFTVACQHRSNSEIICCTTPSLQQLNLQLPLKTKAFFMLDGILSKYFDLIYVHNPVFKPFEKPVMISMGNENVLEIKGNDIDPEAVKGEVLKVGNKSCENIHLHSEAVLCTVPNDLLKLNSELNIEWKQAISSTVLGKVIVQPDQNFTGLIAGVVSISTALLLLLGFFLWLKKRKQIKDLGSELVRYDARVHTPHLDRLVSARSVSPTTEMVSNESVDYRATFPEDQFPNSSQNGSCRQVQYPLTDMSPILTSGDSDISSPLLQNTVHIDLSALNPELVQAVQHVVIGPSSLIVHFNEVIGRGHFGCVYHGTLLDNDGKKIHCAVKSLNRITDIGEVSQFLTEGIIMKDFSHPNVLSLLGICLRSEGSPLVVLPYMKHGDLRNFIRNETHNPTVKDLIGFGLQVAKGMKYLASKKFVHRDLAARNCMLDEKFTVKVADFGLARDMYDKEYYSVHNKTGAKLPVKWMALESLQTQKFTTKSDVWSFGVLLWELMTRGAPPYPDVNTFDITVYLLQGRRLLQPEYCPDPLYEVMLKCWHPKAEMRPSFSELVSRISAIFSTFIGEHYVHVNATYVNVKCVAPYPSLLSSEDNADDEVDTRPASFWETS
RAC-alpha serine/threonine-protein kinase, sequence (P31749 whole entry): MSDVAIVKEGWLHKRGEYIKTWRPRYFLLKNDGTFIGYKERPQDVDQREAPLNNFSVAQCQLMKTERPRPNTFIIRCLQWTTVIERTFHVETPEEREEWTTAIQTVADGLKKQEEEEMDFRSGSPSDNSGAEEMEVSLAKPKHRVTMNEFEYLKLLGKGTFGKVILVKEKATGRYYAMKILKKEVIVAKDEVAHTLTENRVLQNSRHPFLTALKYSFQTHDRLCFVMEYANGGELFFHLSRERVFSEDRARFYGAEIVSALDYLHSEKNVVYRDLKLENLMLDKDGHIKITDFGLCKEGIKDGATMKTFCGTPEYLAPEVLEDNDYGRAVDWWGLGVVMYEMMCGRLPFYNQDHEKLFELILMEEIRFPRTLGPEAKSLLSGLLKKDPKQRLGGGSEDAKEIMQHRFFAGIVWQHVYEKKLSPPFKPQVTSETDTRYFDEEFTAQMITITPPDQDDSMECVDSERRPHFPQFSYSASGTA
Death-associated protein kinase 1 (Homo sapiens), sequence (P53355 whole entry, looked up): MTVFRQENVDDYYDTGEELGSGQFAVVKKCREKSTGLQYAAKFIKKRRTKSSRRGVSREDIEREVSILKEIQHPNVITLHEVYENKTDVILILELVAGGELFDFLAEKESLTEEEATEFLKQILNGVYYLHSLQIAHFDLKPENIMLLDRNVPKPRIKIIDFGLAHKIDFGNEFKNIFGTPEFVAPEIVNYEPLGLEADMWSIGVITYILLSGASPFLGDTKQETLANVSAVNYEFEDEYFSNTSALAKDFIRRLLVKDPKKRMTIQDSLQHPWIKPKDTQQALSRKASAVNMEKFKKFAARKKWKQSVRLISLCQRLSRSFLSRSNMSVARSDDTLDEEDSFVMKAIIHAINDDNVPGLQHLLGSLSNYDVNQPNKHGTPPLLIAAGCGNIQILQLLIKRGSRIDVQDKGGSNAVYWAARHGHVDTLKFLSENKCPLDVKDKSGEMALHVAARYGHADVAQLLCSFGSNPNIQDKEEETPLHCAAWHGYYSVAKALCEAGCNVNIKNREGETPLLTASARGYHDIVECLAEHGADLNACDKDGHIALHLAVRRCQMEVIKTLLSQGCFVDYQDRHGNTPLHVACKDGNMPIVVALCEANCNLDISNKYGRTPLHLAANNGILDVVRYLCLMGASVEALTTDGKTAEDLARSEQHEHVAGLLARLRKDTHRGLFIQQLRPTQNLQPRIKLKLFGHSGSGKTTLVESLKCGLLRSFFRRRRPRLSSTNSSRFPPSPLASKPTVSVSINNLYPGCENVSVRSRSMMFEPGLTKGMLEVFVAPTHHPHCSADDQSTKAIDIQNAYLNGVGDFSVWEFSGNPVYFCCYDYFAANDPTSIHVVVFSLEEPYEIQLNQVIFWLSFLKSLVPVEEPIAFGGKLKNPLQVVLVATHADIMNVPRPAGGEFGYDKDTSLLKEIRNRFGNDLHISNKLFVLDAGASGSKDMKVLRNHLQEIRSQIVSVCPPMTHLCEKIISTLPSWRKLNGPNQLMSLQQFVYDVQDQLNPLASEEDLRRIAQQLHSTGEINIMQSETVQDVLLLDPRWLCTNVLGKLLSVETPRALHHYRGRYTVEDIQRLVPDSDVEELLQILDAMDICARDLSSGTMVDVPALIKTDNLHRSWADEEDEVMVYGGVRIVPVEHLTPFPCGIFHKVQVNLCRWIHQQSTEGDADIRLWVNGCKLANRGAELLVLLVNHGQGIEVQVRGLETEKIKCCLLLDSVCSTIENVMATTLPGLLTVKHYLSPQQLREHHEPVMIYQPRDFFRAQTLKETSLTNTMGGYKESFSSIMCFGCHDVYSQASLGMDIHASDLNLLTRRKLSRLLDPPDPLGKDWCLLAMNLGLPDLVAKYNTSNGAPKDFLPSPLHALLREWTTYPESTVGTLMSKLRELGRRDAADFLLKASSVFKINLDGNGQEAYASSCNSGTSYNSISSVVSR

The compound `CNC(=O)c1ccc(Nc2ncc(C(F)(F)F)c(NCc3nccnc3N(C)S(C)(=O)=O)n2)cc1` [DEFACTINIB] showed a % of control in assay [1] of 1.7%.

The compound `CCOc1cn(-c2ccc(F)cc2C)nc1C(=O)Nc1ccc(Oc2ccnc3cc(OC)c(OC)cc23)c(F)c1` showed a % of control in assay [2] of under 10%.

`COc1cc2ncn(-c3cc(OCc4ccccc4C(F)(F)F)c(C(N)=O)s3)c2cc1OC` [GW843682X]: the values for the % of control in [3] and in [4] were 8.6% and 1.8%, respectively.

What is called IC50 is the midpoint of a concentration-inhibition curve. Turning to `C[C@H](c1ccnc(Nc2nc3ccc(-c4cc(N(C)C)ncn4)cc3[nH]2)c1)N1CCN(C(=O)CC(F)(F)F)CC1` [BAY-985], the IC50 in assay [5] and in assay [7] was over 20 µM each time. Further, in assay [6], the % of control came out at 10%.

In assay [8], `CN(c1ccnc(CNc2nc(Nc3ccc4c(c3)CC(=O)N4)ncc2C(F)(F)F)n1)S(C)(=O)=O` [PF-00911705] gave a % of control of 1.5%.

One may read the Kd as the concentration at which binding is half-saturated. Read a high Kd as lower affinity. As for `CN1C(=O)c2sccc2N(C)c2nc(Nc3ccc(S(N)(=O)=O)cc3)ncc21`, in [9], the IC50 was 34.8 nM. This compound yielded a Kd in assay [10] of 8.4 nM. Also, the % of control in assay [11] is 0.15%.

`CC[C@@H]1C(=O)N(C)c2cnc(Nc3ccc(C(=O)NC4CCN(C)CC4)cc3OC)nc2N1C1CCCC1`: the % of control in assay [12] was 69%; in assay [13] it was 3.7%; in assay [14], 90%; in assay [15] it was 103%.

Source of the values: ChEMBL document CHEMBL5212743, “Selectivity Literature for EUbOPEN Chemogenomics Library wave 3” (2023).
